In PMC5863496, “Mesobuthus Venom-Derived Antimicrobial Peptides Possess Intrinsic Multifunctionality and Differential Potential as Drugs” (Frontiers in Microbiology, 2018):
Ends that are not written are not given here.

What was measured:
Escherichia coli JM109 = experiment: Inhibition-zone assay (CL); type: cell-based; conditions: EC JM109, N.A. = no activity at 0.8 nmol peptide each well
Method in brief: (§1)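 Bacteria (~2 × 10^6 cells/ml) were seeded in 0.8% soft-agar medium (LB, Nutrient Broth or GYM) and grown at 30 or 37°C. Three peptide doses were placed in separate 2 mm wells, and inhibition zones were measured after overnight incubation. CL was calculated from the slope and intercept of a d^2 versus log n plot.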

Escherichia coli DH5α = experiment: Inhibition-zone assay (CL); type: cell-based; conditions: EC DH5α, N.A. = no activity at 0.8 nmol peptide each well
Method in brief: as §1

[1] = test system: fresh erythrocytes from the ICR mice; experiment: Hemolytic assay, mouse erythrocytes; type: cell-based; conditions: mouse blood cells, 30 min, 37°C, A570
Protocol: (§2) Hemolytic activity of peptides against fresh erythrocytes from the ICR mice (Mus musculus), the lizards (Eremias multiocellata) or the pigeons (Columba livia domestica) was assayed according to the standard method (Zhu et al., [2012a]). An aliquot of freshly prepared venom was diluted with 0.9% NaCl to a protein concentration of ~5 mg/mL for use. The percentage of hemolysis is determined as (Apep-Ablank)/(Atot-Ablank) × 100, in which “A” represents absorbance measured at 570 nm. Ablank and Aprep were evaluated in the absence or presence of the venom or peptides. 100% hemolysis (Atot) was obtained in the presence of 1% Triton X-100.

Serum stability = type: in vitro ADME; conditions: fresh mouse serum, 37°C, read-out inhibition zone on Micrococcus luteus plates, triplicate
Protocol: To assess serum stability, peptides were dissolved in H2O or fresh mouse serum for the indicated times at 37°C and their residual activity was measured by the inhibition-zone assay (Hultmark, [1998]).

[2] = test system: Pseudomonas aeruginosa 374; experiment: Inhibition-zone assay (CL); type: cell-based; conditions: PA 374, N.A. = no activity at 0.8 nmol peptide each well
Method in brief: as §1

[3] = test system: Pseudomonas aeruginosa FRD1; experiment: Inhibition-zone assay (CL); type: cell-based; conditions: PA FRD1, N.A. = no activity at 0.8 nmol peptide each well
Method in brief: as §1

[4] = test system: Pseudomonas aeruginosa O1; experiment: Inhibition-zone assay (CL); type: cell-based; conditions: PA O1, N.A. = no activity at 0.8 nmol peptide each well
Method in brief: as §1

[5] = test system: Pseudomonas aeruginosa 11092618; experiment: Inhibition-zone assay (CL); type: cell-based; conditions: PA 11092618, N.A. = no activity at 0.8 nmol peptide each well
Method in brief: as §1

[6] = test system: Serratia marcescens ATCC 14041; experiment: Inhibition-zone assay (CL); type: cell-based; conditions: SMAR ATCC 14041, N.A. = no activity at 0.8 nmol peptide each well
Method in brief: as §1

Candida albicans JX1017 = experiment: Inhibition-zone assay (CL); type: cell-based; conditions: CA JX1017, 28°C, N.A. = no activity at 0.8 nmol peptide each well
Pichia pastoris X33 = experiment: Inhibition-zone assay (CL); type: cell-based; conditions: PP X33, 28°C, N.A. = no activity at 0.8 nmol peptide each well
Aspergillus nidulans A28 = experiment: Inhibition-zone assay (CL); type: cell-based; conditions: ANID A28, 28°C, N.A. = no activity at 0.8 nmol peptide each well
[7] = test system: fresh erythrocytes from the pigeons; experiment: Hemolytic assay, bird (pigeon) erythrocytes; type: cell-based, Columba livia domestica; conditions: peptide 25 μM; bird blood cells; 30 min, 37°C
Protocol: as §2

Candida albicans JX1195 = experiment: Inhibition-zone assay (CL); type: cell-based; conditions: CA JX1195, 28°C, N.A. = no activity at 0.8 nmol peptide each well
[8] = test system: Aspergillus nidulans Rcho15; experiment: Inhibition-zone assay (CL); type: cell-based; conditions: ANID Rcho15, 28°C, N.A. = no activity at 0.8 nmol peptide each well
[9] = peptide 3.125 μM, mean ± S.D., triplicate

Question: Which “Lethal concentration (CL)” value (Escherichia coli JM109) does the source give for CC[C@H](C)[C@H](NC(=O)CN)C(=O)NCC(=O)N[C@@H](C)C(=O)N[C@H](C(=O)N[C@@H](CC(C)C)C(=O)N[C@@H](CCCCN)C(=O)N[C@H](C(=O)N[C@@H](CC(C)C)C(=O)N[C@H](C(=O)N[C@H](C(=O)NCC(=O)N[C@@H](CC(C)C)C(=O)N1CCC[C@H]1C(=O)N[C@@H](C)C(=O)N[C@@H](CC(C)C)C(=O)N[C@H](C(=O)N[C@@H](CO)C(=O)N[C@@H](Cc1c[nH]c2ccccc12)C(=O)N[C@H](C(=O)N[C@@H](CCCCN)C(=O)N[C@@H](CCCNC(=N)N)C(=O)N[C@@H](CCCCN)C(=O)N[C@@H](CCCNC(=N)N)C(=O)N[C@@H](CCC(N)=O)C(=O)N[C@@H](CCC(N)=O)C(N)=O)[C@@H](C)CC)[C@@H](C)CC)[C@@H](C)O)[C@@H](C)O)C(C)C)C(C)C [Melittin, reference compound] here?
Answer: Its value is 23.53 µM.

Question: What about the “Lethal concentration (CL)” value (Escherichia coli DH5α) of the same compound?
Answer: The value was 18.20 µM.

Question: What about the hemolysis [1, 9] of the same compound?
Answer: The hemolysis was “complete hemolysis”.

Question: What about the “residual activity after incubation in mouse serum” value (Serum stability; 24 h, 0.72-1.44 nmol each well) of the same compound?
Answer: The value was “only little or no activity remained”.

Question: What does the source list for FFGHLFKLATKIIPSFFRRKNQ [MAC-22]?
Answer: Lethal concentration (CL) [2]: 18.75 µM; Lethal concentration (CL) [3]: 18.75 µM; Lethal concentration (CL) [4]: 12.03 µM; Lethal concentration (CL) [5]: 19.08 µM; Lethal concentration (CL) (Pseudomonas solanacearum): 22.08 µM

Question: Which results are given for “FFGHLFKLATKIIPSLFQ [MUC-18, reference compound]”?
Answer: Lethal concentration (CL) [4]: 41.58 µM; Lethal concentration (CL) [5]: 31.40 µM

Question: Which “Lethal concentration (CL)” value [2] does the source give for FFGHLFKLATKIIPSLFQRKKE [MUC-22] here?
Answer: Its value is 16.86 µM.

Question: What about the “Lethal concentration (CL)” value [3] of the same compound?
Answer: Its value is 16.86 µM.

Question: What about the “Lethal concentration (CL)” value [6] of the same compound?
Answer: The value was 58.93 µM.

Question: And the “Lethal concentration (CL)” value [4]?
Answer: Its value is 3.79 µM.

Question: What about the “Lethal concentration (CL)” value [5] of the same compound?
Answer: Its value is 6.10 µM.

Question: And the “Lethal concentration (CL)” value (Pseudomonas solanacearum)?
Answer: The value was 21.61 µM.

Question: Which “Lethal concentration (CL)” value (Candida albicans JX1017) does the source give for FLFSLIPSAISGLINAFK-NH2 [MeuFSPL-2] here?
Answer: Its value is 11.10 µM.

Question: What about the “residual activity after incubation in mouse serum” value (Serum stability; 4 h, 0.72 nmol/well) of the same compound?
Answer: The value was “entirely lost”.

Question: Which results are given for FLFSLIPSAISGLISAFK-NH2 [MeuFSPL-1]?
Answer: Lethal concentration (CL) (Candida albicans JX1017): 11.72 µM; Lethal concentration (CL) (Pichia pastoris X33): 8.21 µM; Lethal concentration (CL) (Aspergillus nidulans A28): 14.84 µM; hemolysis [1, 9]: 61 ± 2.5%; hemolysis ([1]; peptide 6.25 μM): ~100%

Question: Which hemolysis [7] does the source give for FLFSLIPSAISGLISAFKGRRKRDLN-NH2 [MarMEL] here?
Answer: Its hemolysis is “nearly complete hemolysis”.

Question: What about the “Lethal concentration (CL)” value (Candida albicans JX1017) of the same compound?
Answer: Its value is 4.07 µM.

Question: What about the “Lethal concentration (CL)” value (Pichia pastoris X33) of the same compound?
Answer: Its value is 3.57 µM.

Question: And the “Lethal concentration (CL)” value (Aspergillus nidulans A28)?
Answer: The value was 7.14 µM.

Question: What about the “Lethal concentration (CL)” value (Candida albicans JX1195) of the same compound?
Answer: Its value is 5.65 µM.

Question: What about the “Lethal concentration (CL)” value (Escherichia coli JM109) of the same compound?
Answer: The value was 5.55 µM.

Question: And the “Lethal concentration (CL)” value (Escherichia coli DH5α)?
Answer: Its value is 5.48 µM.

Question: And the “Lethal concentration (CL)” value [8]?
Answer: The value was 5.65 µM.

Question: What about the “Lethal concentration (CL)” value [5] of the same compound?
Answer: Its value is 8.41 µM.

Question: What about the hemolysis [1, 9] of the same compound?
Answer: Its hemolysis is 66 ± 1.2%.

Question: What about the hemolysis ([1]; peptide 6.25 μM) of the same compound?
Answer: Its hemolysis is roughly 100%.
